Eleven compounds from ChEMBL document CHEMBL1136775, “Indole naphthyridinones as inhibitors of bacterial enoyl-ACP reductases FabI and FabK” (J Med Chem, 2003) can be followed below.

One assay concerns Escherichia coli. Briefly: Antibacterial activity against Escherichia coli 120AcrAB-. Format: functional.
In a further assay the test system is Enterococcus faecalis. Briefly: Antibacterial activity against Enterococcus faecalis I. The format is functional.
The nature of assay [1]: Inhibitory activity against Enoyl-ACP reductase FabI in Escherichia coli. The format is functional.
Assay [2] can be described thus: Inhibitory activity against Enoyl-ACP reductase FabI in Haemophilus influenzae.
For assay [3], the target named is T1, Enoyl-[acyl-carrier-protein] reductase [NADPH] FabI (Staphylococcus aureus, UniProt Q6GI75).
T1 sequence (Q6GI75 whole entry): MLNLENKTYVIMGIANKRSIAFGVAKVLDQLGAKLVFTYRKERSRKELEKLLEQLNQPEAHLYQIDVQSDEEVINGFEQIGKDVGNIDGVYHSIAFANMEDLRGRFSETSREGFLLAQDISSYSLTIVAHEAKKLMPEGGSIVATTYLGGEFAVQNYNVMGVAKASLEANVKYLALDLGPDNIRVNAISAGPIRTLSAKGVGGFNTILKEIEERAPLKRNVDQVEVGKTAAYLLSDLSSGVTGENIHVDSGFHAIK
Briefly: Inhibitory activity against Enoyl-ACP reductase FabI in Staphylococcus aureus.

Assay [4] is described as follows: Inhibitory activity against Enoyl-ACP reductase FabK in Streptococcus pneumoniae. Format: functional.
A further assay relates to Haemophilus influenzae. Briefly: Antibacterial activity against Haemophilus influenzae Q1. The format is functional.
The subject of assay [5] is Staphylococcus aureus. Briefly: Antibacterial activity against Staphylococcus aureus WCUH29. Format: functional.
The next assay concerns Streptococcus pneumoniae. Briefly: Antibacterial activity against Streptococcus pneumoniae 1629. Format: functional.
In the next assay the test system is Moraxella catarrhalis. Briefly: Antibacterial activity against Moraxella catarrhalis. Format: functional.
In the next assay the test system is A549. Briefly: Cytotoxicity against human A549 lung cells. The format is functional, cell-based.
The nature of assay [6]: Inhibitory activity against human FASI enzyme. Format: functional.
The test system of the next assay is Liposome. Briefly: Inhibitory activity in liposome lysis assay. The format is functional, subcellular, Homo sapiens.
Assay [7] has as its system Staphylococcus aureus. Briefly: Inhibitory activity against Staphylococcus aureus. The format is functional.
Assay [8] has as its system Staphylococcus aureus. Briefly: Antibacterial activity against in Staphylococcus aureus WCUH29. The format is functional.

Values after ≈ are worked out from the molar mass of the structure shown.

Turning to `Cc1cccc2c(CN(C)C(=O)/C=C/c3cnc4c(c3)CCC(=O)N4)c(C)n(C)c12`, the MIC50 was above 64 µg/mL with Escherichia coli; above 64 µg/mL with Enterococcus faecalis; above 64 µg/mL in the assay on Haemophilus influenzae; below 0.001 µg/mL in the assay with Staphylococcus aureus [5]; above 64 µg/mL in the assay with Streptococcus pneumoniae; 2 µg/mL (≈ 4.97 µM) with Moraxella catarrhalis. In addition, the half-maximal inhibitory concentration (IC50) in assay [1] is below 70 nM; in assay [2], 70 nM; in assay [3], 20 nM; in assay [4] it was above 30000 nM.

As to `Cc1c(CN(C)C(=O)/C=C/c2cnc3c(c2)CCC(=O)N3)c2ccccc2n1C`, the MIC50 against Escherichia coli was 32 µg/mL (≈ 82.4 µM); against Enterococcus faecalis it was above 64 µg/mL; in the assay on Haemophilus influenzae, above 64 µg/mL; with Staphylococcus aureus [5], below 0.001 µg/mL; in the assay with Streptococcus pneumoniae it was above 64 µg/mL; against Moraxella catarrhalis, below 0.06 µg/mL. The IC50 in [1] was 30 nM; in assay [2] it was 25 nM; in assay [3] it was 60 nM; in assay [4], above 30000 nM.

In the case of `Cc1cc(/C=C/C(=O)N(C)Cc2cc3ccccc3n2C)cnc1N`, the IC50 in [2] was 6100 nM; in assay [3], 910 nM. For the same compound, the MIC50 is above 64 µg/mL with Haemophilus influenzae and 0.25 µg/mL (≈ 0.748 µM) against Staphylococcus aureus [5].

Consider `CN(Cc1cc2ccccc2n1C)C(=O)/C=C/c1cnc2c(c1)CCCN2`, for which the values for the IC50 in [2] and in assay [3] were 2700 nM and 2300 nM, respectively. Besides, the MIC50 in the assay on Haemophilus influenzae is above 64 µg/mL; with Staphylococcus aureus [5], 0.5 µg/mL (≈ 1.39 µM).

As to `CN(Cc1cc2ccccc2n1C)C(=O)/C=C/c1ccc(N)nc1`, the IC50 in the assay on A549 was 512 µg/mL (≈ 1600 µM); in [2], 4200 nM; in [6], above 100000 nM; with Liposome, 630000 nM. The MIC50 was above 64 µg/mL with Haemophilus influenzae and 0.5 µg/mL (≈ 1.56 µM) in the assay on Staphylococcus aureus [5].

Regarding `CN(Cc1cn(C)c2ccccc12)C(=O)/C=C/c1cnc2c(c1)CCC(=O)N2`, the MIC50 with Escherichia coli is 8 µg/mL (≈ 21.4 µM); against Enterococcus faecalis, 16 µg/mL (≈ 42.7 µM); against Haemophilus influenzae it was 16 µg/mL (≈ 42.7 µM); against Staphylococcus aureus [5], 0.06 µg/mL (≈ 0.16 µM); against Streptococcus pneumoniae it was 16 µg/mL (≈ 42.7 µM); against Moraxella catarrhalis it was below 0.06 µg/mL. Further, the IC50 in [1] stood at 70 nM; in [2] it was 390 nM; in assay [3] it was 130 nM; in assay [4], 5000 nM.

Consider `CN(Cc1cc2ccccc2n1C)C(=O)/C=C/c1cnc2c(c1)CCC(=O)N2`, for which the IC50 in assay [2] worked out at 560 nM; in [3] it was 50 nM. Moreover, the MIC50 was 32 µg/mL (≈ 85.5 µM) with Haemophilus influenzae and 0.03 µg/mL (≈ 0.0801 µM) in the assay on Staphylococcus aureus [5]. The compound further registered a Ki in the assay on Staphylococcus aureus [7] of 4.3 nM.

For `CC(=O)Nc1ncc(/C=C/C(=O)N(C)Cc2cc3ccccc3n2C)cc1C`, the values for the IC50 in assay [2] and in assay [3] were 7600 nM and 940 nM, respectively. The MIC50 against Haemophilus influenzae is above 64 µg/mL; against Staphylococcus aureus [8], 2 µg/mL (≈ 5.31 µM).

Regarding `CC(=O)Nc1ccc(/C=C/C(=O)N(C)Cc2cc3ccccc3n2C)cn1`, the IC50 was 1300 nM in assay [2] and 300 nM in assay [3]. Also, the MIC50 came out at 32 µg/mL (≈ 88.3 µM) in the assay on Haemophilus influenzae and 0.12 µg/mL (≈ 0.331 µM) in the assay on Staphylococcus aureus [5].

For the compound `Cc1[nH]c2ccccc2c1CN(C)C(=O)/C=C/c1cnc2c(c1)CCC(=O)N2`, the MIC50 with Escherichia coli is 0.5 µg/mL (≈ 1.34 µM); in the assay with Enterococcus faecalis, 16 µg/mL (≈ 42.7 µM); against Haemophilus influenzae it was 1 µg/mL (≈ 2.67 µM); in the assay with Staphylococcus aureus [5], 0.016 µg/mL (≈ 0.0427 µM); with Streptococcus pneumoniae, 16 µg/mL (≈ 42.7 µM); in the assay on Moraxella catarrhalis, below 0.06 µg/mL. The IC50 in assay [1] is below 60 nM; in assay [2], 130 nM; in assay [3], 50 nM; in assay [4], 3000 nM.

In the case of `Oc1cc(Cl)ccc1Oc1ccc(Cl)cc1Cl` [TRICLOSAN], the MIC50 in the assay with Escherichia coli was 0.5 µg/mL (≈ 1.73 µM); with Enterococcus faecalis, 16 µg/mL (≈ 55.3 µM); against Haemophilus influenzae it was 0.5 µg/mL (≈ 1.73 µM); against Staphylococcus aureus [5], 0.03 µg/mL (≈ 0.104 µM); in the assay on Streptococcus pneumoniae it was 16 µg/mL (≈ 55.3 µM); in the assay with Moraxella catarrhalis, below 0.06 µg/mL. Also, the IC50 in assay [4] is above 30000 nM.

Broadly, the IC50 is the midpoint of a concentration-inhibition curve. Lower therefore signals greater potency in that assay. The Ki is the equilibrium dissociation constant of an inhibitor or competing ligand from its target.
